Assay: molar heat capacity at constant pressure
Conditions: 101.33 kPa, Small (less than 1 g) adiabatic calorimetry

CCC(=O)O[C@]1(C(=O)COC(C)=O)CC[C@H]2[C@@H]3C[C@H](C)C4=CC(=O)C=C[C@]4(C)[C@H]3[C@@H](O)C[C@@]21C [Methylprednisolone aceponate]
Conditions	molar heat capacity at constant pressure [J/K/mol]
5 K, Crystal 2	1.87
7.53 K, Crystal 2	6.019
7.84 K, Crystal 2	6.56
8.09 K, Crystal 2	7.014
8.41 K, Crystal 2	7.67
8.68 K, Crystal 2	8.278
9 K, Crystal 2	8.893
9.32 K, Crystal 2	9.535
9.64 K, Crystal 2	10.2
9.98 K, Crystal 2	10.97
10 K, Crystal 2	11
10.31 K, Crystal 2	11.76
10.64 K, Crystal 2	12.47
10.99 K, Crystal 2	13.1
11.33 K, Crystal 2	13.78
11.69 K, Crystal 2	14.32
12.05 K, Crystal 2	15.03
12.88 K, Crystal 2	16.64
14.18 K, Crystal 2	19.38
15 K, Crystal 2	21.09
15.44 K, Crystal 2	22.08
16.83 K, Crystal 2	25.33
18.19 K, Crystal 2	28.78
19.58 K, Crystal 2	32.36
20 K, Crystal 2	33.51
22.18 K, Crystal 2	39.37
25 K, Crystal 2	47.69
25.63 K, Crystal 2	49.56
29.09 K, Crystal 2	59.46
30 K, Crystal 2	61.69
32.6 K, Crystal 2	68.53
36.13 K, Crystal 2	78.23
39.68 K, Crystal 2	88.41
40 K, Crystal 2	89.06
43.24 K, Crystal 2	97.8
46.82 K, Crystal 2	106.2
50 K, Crystal 2	115
50.41 K, Crystal 2	116.3
54 K, Crystal 2	126.6
57.6 K, Crystal 2	136
60 K, Crystal 2	142.6
61.21 K, Crystal 2	145.2
64.82 K, Crystal 2	155
68.42 K, Crystal 2	163.9
70 K, Crystal 2	167.5
72.02 K, Crystal 2	173
75.66 K, Crystal 2	181.2
79.32 K, Crystal 2	190.9
80 K, Crystal 2	193.1
82.52 K, Crystal 2	200.1
82.95 K, Crystal 2	200.9
85.14 K, Crystal 2	206.2
86.58 K, Crystal 2	209.8
87.56 K, Crystal 2	212.6
89.97 K, Crystal 2	218.2
90 K, Crystal 2	218.2
92.39 K, Crystal 2	223.5
94.8 K, Crystal 2	229
97.21 K, Crystal 2	234.8
97.3 K, Crystal 2	235.6
99.62 K, Crystal 2	240.5
100 K, Crystal 2	241.2
100.7 K, Crystal 2	243.6
102.02 K, Crystal 2	245.8
104.08 K, Crystal 2	251
104.42 K, Crystal 2	251.6
106.93 K, Crystal 2	257.8
107.83 K, Crystal 2	258.9
109.22 K, Crystal 2	263
109.71 K, Crystal 2	263.2
110 K, Crystal 2	264.5
111.62 K, Crystal 2	268.1
112.99 K, Crystal 2	270.3
114.02 K, Crystal 2	273.7
116 K, Crystal 2	277
116.42 K, Crystal 2	278.5
118.81 K, Crystal 2	283.7
119.02 K, Crystal 2	283.2
120 K, Crystal 2	286.4
121.2 K, Crystal 2	288.9
122.04 K, Crystal 2	290.1
123.59 K, Crystal 2	295.1
125.06 K, Crystal 2	297.7
125.98 K, Crystal 2	300
128.08 K, Crystal 2	305.6
128.36 K, Crystal 2	306
130 K, Crystal 2	309.4
130.74 K, Crystal 2	310.7
131.09 K, Crystal 1	312.1
133.12 K, Crystal 1	311.6
134.11 K, Crystal 1	310
135.5 K, Crystal 1	309.5
137.13 K, Crystal 1	310.6
137.88 K, Crystal 1	312.2
140 K, Crystal 1	315.4
140.15 K, Crystal 1	315.8
140.25 K, Crystal 1	315.6
142.62 K, Crystal 1	319.4
143.15 K, Crystal 1	320.6
144.98 K, Crystal 1	324.5
146.15 K, Crystal 1	326.3
147.34 K, Crystal 1	328.3
149.14 K, Crystal 1	331.8
149.69 K, Crystal 1	333.1
150 K, Crystal 1	333
152.05 K, Crystal 1	336.9
152.14 K, Crystal 1	336.7
154.41 K, Crystal 1	341
155.13 K, Crystal 1	342
156.76 K, Crystal 1	344
158.09 K, Crystal 1	347.4
159.09 K, Crystal 1	348.8
160 K, Crystal 1	351
161.07 K, Crystal 1	352.5
161.43 K, Crystal 1	353.5
163.77 K, Crystal 1	357.7
164.05 K, Crystal 1	358.2
166.12 K, Crystal 1	361.8
167.01 K, Crystal 1	363.8
168.46 K, Crystal 1	366.9
169.98 K, Crystal 1	368.9
170 K, Crystal 1	368.7
170.8 K, Crystal 1	371.1
172.94 K, Crystal 1	373.7
173.13 K, Crystal 1	375
175.46 K, Crystal 1	378.6
175.89 K, Crystal 1	379.5
177.8 K, Crystal 1	381
178.84 K, Crystal 1	383.9
180 K, Crystal 1	386.3
180.1 K, Crystal 1	385.2

Reference: the NIST ThermoML archive (doi:10.1016/j.jct.2016.08.022)
